From patent US4628090A, “Fluorine-containing antifolates incapable of polyglutanayte formation related compounds” (Rensselaer Polytechnic Institute, priority 1985, dated 1986)
“Also recorded” adds a separate entry of the source. Where two headings read alike, the source gives them in different places. Each block holds one compound with its values, some of them ahead of it.

Experiments:
DHFR = settings: Rosowsky et al; cited from earlier work
[1] = system: FPGS (folylpolyglutamate synthetase); settings: Rosowsky et al; cited from earlier work
[2] = system: folylpolyglutamate synthetase; assay: Polyglutamylation by FPGS: incubation with FPGS, ATP and glutamic acid (Tables 2 and 3); type: biochemical; settings: Table 2 footnotes, ATP, glutamic acid
hepatic cells = type: cell-based
leukemia = settings: Farber et al, 1948; cited from earlier work
[3] = system: FPGS (folylpolyglutamate synthetase); assay: FPGS inhibition / chain termination by 4-fluoroglutamic acid; type: biochemical
Source text: The present invention for the first time presents a fluorinated compound, e.g. D,L-threo-4-fluoroglutamic acid which inhibits FPGS. It is proposed that by replacing the glutamate moiety of MTX with 4-fluoroglutamate, as in the present invention, the new MTX analog becomes capable of inhibiting DHFR and incapable of acting as a substrate for FPGS.

[4] = system: FPGS (folylpolyglutamate synthetase); settings: alternate substrate; McGuire and Coward, J. Biol. Chem. 260, 6747 (1985); cited from earlier work
[5] = system: dihydrofolate reductase (DHFR); assay: DHFR inhibition; type: biochemical; settings: in vitro, relative to MTX
Source text: Hopefully, the potential for this new compound as a treatment for leukemia will be exploited further.

rat liver FPGS = assay: FPGS substrate activity, in vitro, rat liver FPGS; type: biochemical
cultured hepatic cells = assay: Toxicity in long term pulse administration experiments, cultured hepatic cells; type: cell-based
Source text: The major difference is that the cells given MTX contain large amounts (60%-90%) of MTX polyglutamate derivatives which efflux only very slowly, and thus are trapped in the cell. In contrast, cells given MFTX contain less than 5% of the analgous FMTX polyglutamates.

[6] = system: biosynthesis of thymidyate; assay: Thymidylate biosynthesis (DNA synthesis) in pulse administration experiments; type: cell-based

SMILES: CN(Cc1cnc2nc(N)nc(N)c2n1)c1ccc(C(=O)NC(CCS(=O)(=O)O)C(=O)O)cc1 (racemic)
affinity for DHFR (DHFR): tightly bind DHFR | inhibition of FPGS [1]: appears to weakly inhibit FPGS

polyglutamylation [2]: undergoes polyglutamylation
SMILES: Nc1nc2ncc(CNc3ccc(C(=O)N[C@@H](CCC(=O)O)C(=O)O)cc3)nc2c(=O)[nH]1 [Folic Acid]

SMILES: CN(Cc1cnc2nc(N)nc(N)c2n1)c1ccc(C(=O)N[C@@H](CCC(=O)O)C(=O)O)cc1 [Methotrexate]
polyglutamylation [2]: undergoes | polyglutamate derivatives contained in cells (hepatic cells): 60-90% | remission in leukemia (leukemia): temporary remission in leukemia

inhibition of FPGS [3]: inhibits FPGS
SMILES: NC(CC(F)C(=O)O)C(=O)O [D,L-threo-4-fluoroglutamic acid]
chain termination of the FPGS reaction [4]: chain termination of the FPGS reaction

SMILES: CN(Cc1cnc2nc(N)nc(N)c2n1)c1ccc(C(=O)NC(CC(F)C(=O)O)C(=O)O)cc1 (stereo not drawn) [FMTX, 4-amino-10-methyl-pteroyl-4-fluoroglutamic acid]
inhibitory activity against DHFR [5]: retain the potent inhibitory activity of MTX against DHFR; also recorded: comparable to MTX | substrate for FPGS (rat liver FPGS): not a substrate | polyglutamylation [2]: resists | toxicity levels (cultured hepatic cells; long term pulse administration, cultured hepatic cells, relative to MTX): several thousand times lower than MTX | toxicity to cells (cultured hepatic cells; preliminary biochemistry, relative to MTX): without being nearly as toxic to cells | cytotoxicity (cultured hepatic cells; pulse conditions): marked decrease in cytotoxicity | efflux (transport out) from hepatic cells, rate (hepatic cells): essentially identical to unmetabolized MTX | polyglutamate derivatives contained in cells (hepatic cells): less than 5% | uptake by hepatic cells (rate and extent) (hepatic cells): nearly identical in terms of rate and extent as unmetabolized MTX | biosynthesis of thymidyate, and therefore DNA synthesis [6]: only very weakly affected
